Reference: ChEMBL document CHEMBL1201862, “PubChem BioAssay data set” (2004)
Values belong to the molecule of their own block, whether it stands above or below them. Calls of active or inactive are those of the source.

Tests used:
Leucine aminopeptidase = target: T1, Leucine aminopeptidase (Plasmodium falciparum 3D7, UniProt Q8IL11); assay: P. falciparum M17LAP inhibitors, primary screen, biochemical, fluorogenic H-Leu-NHMec substrate, 1536-well (AID 1619); assay type: functional
T1 sequence (Q8IL11 whole entry): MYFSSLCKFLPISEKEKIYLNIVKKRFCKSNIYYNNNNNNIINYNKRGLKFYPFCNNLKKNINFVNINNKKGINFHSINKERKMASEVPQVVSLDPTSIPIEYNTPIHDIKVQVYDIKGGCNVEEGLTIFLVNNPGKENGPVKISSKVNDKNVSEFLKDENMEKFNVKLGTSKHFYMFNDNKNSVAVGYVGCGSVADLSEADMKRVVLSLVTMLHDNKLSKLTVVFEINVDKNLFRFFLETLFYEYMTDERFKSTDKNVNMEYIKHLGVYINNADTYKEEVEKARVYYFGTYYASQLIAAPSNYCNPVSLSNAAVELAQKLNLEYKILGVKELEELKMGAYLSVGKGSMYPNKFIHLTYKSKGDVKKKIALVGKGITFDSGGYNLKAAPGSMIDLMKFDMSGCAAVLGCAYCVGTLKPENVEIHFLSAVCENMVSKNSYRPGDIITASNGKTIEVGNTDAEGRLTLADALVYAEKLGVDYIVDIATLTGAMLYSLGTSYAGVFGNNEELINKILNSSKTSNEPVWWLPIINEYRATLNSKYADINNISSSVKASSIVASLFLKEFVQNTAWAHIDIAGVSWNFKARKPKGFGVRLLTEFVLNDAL

[1] = target: T2, Polyadenylate-binding protein 1 (Homo sapiens, UniProt P11940); assay: MLLE domain peptide-binding blockers, IC50 – biochemical, fluorescence polarization, FITC-PAM2 peptide, dose response (AID 602259); assay type: functional; conditions: read-out: IC50_Mean
T2 sequence (P11940 whole entry, the tested form may be a part): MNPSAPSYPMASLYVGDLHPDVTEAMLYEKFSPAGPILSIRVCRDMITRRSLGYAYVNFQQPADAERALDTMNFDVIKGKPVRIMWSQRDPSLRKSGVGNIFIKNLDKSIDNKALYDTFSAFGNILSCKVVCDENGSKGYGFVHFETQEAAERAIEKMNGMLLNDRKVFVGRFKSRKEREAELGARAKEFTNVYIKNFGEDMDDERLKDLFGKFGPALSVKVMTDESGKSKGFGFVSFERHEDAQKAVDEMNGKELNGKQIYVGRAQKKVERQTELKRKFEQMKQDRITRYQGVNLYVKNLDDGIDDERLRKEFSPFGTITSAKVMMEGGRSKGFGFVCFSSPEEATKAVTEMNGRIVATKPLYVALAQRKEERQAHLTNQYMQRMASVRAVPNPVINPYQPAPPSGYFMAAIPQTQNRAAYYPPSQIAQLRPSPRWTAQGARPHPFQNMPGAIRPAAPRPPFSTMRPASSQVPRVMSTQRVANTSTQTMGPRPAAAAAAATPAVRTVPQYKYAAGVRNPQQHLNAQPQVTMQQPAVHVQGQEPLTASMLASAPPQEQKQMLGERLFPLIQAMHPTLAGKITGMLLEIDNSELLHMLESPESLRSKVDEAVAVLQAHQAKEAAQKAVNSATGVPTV

[2] = target: T2, Polyadenylate-binding protein 1; assay: MLLE binding blockers, Cy5 peptide tracer – biochemical, fluorescence polarization, Cy5-PAM2 peptide, secondary, miRNA deadenylation inhibitor project, dose response (AID 602260); assay type: functional; conditions: read-out: IC50_Mean
Genome polyprotein = Genome polyprotein (dengue virus type 2, UniProt P29990); assay: flavivirus cap methylation enzyme inhibition – biochemical, confirmation dose response, primary screen (AID 588689); assay type: functional
Sequence of Genome polyprotein (P29990 2492-3391 limits assumed): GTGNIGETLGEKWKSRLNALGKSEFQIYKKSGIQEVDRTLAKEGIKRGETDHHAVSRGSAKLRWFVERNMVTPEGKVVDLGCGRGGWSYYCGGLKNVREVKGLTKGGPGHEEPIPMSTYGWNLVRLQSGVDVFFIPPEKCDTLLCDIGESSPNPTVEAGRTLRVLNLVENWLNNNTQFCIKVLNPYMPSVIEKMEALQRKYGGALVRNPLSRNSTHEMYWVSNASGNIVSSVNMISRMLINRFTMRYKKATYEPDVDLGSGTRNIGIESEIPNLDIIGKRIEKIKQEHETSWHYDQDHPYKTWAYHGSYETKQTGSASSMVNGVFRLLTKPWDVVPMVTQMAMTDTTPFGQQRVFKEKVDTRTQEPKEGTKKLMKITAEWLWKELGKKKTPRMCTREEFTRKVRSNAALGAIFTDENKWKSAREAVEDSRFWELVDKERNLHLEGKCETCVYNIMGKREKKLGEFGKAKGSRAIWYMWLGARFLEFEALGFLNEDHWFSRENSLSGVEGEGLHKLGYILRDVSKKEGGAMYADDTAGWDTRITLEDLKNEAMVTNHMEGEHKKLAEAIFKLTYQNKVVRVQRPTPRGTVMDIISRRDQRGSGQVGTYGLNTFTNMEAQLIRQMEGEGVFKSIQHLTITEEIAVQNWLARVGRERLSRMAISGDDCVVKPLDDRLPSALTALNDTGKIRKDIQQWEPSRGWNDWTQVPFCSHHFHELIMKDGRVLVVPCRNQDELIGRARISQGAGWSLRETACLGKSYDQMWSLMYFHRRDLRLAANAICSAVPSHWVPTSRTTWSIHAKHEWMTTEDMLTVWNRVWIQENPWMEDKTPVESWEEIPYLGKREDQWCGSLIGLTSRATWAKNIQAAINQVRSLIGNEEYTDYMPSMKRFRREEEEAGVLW

Fatty acid synthase [3] = target: T3, Fatty acid synthase (Homo sapiens, UniProt P49327); assay: inhibition of human FAS-TE enzyme activity – biochemical, endpoint fluorescence intensity, uHTS hits, dose response (AID 624327); assay type: functional;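 also: fluorescence from hydrolysis of an O-methyl fluorescein acyl ester substrate by the enzyme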
T3 sequence (P49327 whole entry): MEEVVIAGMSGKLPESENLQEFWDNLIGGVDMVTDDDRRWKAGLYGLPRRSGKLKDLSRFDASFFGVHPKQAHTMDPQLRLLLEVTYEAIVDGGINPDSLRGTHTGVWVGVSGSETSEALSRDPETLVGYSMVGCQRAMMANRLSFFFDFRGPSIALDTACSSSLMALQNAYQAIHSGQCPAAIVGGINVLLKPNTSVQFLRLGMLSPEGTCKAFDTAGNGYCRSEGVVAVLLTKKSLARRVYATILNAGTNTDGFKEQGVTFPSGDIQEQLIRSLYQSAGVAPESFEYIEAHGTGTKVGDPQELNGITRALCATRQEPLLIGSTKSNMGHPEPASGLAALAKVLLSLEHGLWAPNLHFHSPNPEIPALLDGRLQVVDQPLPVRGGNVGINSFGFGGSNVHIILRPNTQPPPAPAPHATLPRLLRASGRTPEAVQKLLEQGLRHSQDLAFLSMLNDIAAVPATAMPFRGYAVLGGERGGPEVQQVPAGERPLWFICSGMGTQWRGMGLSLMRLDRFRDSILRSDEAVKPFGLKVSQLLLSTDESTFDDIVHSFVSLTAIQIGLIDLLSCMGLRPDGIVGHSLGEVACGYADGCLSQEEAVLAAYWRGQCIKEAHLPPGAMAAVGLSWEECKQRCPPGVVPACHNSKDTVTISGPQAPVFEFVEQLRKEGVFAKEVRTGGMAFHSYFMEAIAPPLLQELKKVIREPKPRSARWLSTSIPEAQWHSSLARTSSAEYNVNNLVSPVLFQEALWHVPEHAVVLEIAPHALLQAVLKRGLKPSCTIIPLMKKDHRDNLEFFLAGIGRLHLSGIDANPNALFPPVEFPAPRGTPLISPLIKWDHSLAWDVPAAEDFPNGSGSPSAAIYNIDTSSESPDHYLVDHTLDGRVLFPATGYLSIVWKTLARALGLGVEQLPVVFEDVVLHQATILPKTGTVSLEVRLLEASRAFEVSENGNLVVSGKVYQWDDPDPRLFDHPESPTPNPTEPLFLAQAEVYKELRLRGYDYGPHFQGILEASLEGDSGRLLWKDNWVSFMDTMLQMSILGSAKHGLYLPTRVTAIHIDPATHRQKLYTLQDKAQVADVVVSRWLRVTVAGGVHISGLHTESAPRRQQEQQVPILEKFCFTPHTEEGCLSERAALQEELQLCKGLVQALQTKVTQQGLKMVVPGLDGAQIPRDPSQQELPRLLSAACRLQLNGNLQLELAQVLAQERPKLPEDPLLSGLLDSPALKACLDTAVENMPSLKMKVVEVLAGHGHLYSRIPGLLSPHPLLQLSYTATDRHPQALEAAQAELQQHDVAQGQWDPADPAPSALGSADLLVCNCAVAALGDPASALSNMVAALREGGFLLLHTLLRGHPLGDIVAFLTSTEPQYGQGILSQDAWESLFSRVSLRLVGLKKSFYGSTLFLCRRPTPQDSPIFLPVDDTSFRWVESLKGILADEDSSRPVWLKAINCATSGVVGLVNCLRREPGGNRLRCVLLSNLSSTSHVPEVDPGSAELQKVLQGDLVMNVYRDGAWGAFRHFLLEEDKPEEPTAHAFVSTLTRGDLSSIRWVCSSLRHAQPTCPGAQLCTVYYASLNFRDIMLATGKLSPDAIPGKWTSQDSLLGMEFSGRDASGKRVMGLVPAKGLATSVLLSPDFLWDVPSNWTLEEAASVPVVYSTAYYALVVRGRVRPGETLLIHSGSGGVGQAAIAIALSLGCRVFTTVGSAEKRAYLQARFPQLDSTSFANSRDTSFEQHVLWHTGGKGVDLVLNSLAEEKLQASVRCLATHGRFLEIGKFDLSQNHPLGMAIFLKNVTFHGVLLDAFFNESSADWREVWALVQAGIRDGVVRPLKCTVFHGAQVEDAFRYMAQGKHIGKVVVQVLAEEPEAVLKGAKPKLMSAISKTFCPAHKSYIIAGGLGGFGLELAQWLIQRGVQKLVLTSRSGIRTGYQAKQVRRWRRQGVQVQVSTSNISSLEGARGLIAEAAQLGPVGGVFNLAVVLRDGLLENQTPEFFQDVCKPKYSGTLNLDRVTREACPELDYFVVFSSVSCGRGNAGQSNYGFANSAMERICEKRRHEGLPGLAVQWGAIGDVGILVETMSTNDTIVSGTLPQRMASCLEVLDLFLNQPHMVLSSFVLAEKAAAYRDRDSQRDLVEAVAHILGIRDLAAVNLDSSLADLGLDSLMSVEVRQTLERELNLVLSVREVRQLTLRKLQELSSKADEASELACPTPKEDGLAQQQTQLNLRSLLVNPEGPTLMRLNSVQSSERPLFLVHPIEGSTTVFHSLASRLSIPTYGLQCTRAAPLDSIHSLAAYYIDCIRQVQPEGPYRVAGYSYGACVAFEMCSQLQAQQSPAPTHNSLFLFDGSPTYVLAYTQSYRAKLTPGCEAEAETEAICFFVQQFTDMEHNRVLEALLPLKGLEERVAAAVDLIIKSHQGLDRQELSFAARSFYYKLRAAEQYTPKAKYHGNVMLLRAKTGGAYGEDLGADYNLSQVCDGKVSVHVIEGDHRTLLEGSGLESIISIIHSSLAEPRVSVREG

Fatty acid synthase [4] = target: T3, Fatty acid synthase; assay: inhibition of human FAS-TE enzyme activity – biochemical, kinetic fluorescence intensity, dose response (AID 624326); assay type: functional;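 also: rate of fluorescence rise from hydrolysis of a fluorogenic O-methyl fluorescein ester substrate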
[5] = target: T4, Corticotropin-releasing factor receptor 2/Corticotropin-releasing factor-binding protein (Homo sapiens, UniProt P24387+Q13324); assay: Dose Response confirmation of uHTS hits for small molecule antagonists of the CRF-binding protein and CRF-R2 receptor complex.; assay type: functional; conditions: read-out: IC50_Mean
T4 sequence (Q13324 whole entry): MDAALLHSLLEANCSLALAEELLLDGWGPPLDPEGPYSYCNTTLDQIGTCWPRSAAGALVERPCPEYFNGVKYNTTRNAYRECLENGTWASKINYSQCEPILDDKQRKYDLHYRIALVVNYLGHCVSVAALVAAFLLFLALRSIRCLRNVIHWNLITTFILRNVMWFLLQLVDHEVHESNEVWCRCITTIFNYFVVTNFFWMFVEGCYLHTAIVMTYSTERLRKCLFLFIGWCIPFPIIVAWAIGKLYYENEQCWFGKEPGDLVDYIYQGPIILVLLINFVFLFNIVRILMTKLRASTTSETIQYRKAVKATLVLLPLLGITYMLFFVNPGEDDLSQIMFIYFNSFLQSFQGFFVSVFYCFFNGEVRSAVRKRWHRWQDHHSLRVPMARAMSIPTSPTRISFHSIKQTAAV
T4 sequence (P24387 whole entry): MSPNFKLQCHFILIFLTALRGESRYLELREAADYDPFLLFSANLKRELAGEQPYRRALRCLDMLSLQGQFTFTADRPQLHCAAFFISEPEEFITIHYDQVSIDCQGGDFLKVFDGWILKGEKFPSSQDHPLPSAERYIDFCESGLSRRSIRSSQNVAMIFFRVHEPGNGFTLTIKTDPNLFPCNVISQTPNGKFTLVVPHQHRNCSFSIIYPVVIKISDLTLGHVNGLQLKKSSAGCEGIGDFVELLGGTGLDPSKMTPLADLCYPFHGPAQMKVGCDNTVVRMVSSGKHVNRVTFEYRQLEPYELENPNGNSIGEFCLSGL

[6] = target: T4, Corticotropin-releasing factor receptor 2/Corticotropin-releasing factor-binding protein; assay: activators of CRF receptor 2 with binding protein – uHTS hits, confirmation (AID 602473); assay type: functional; conditions: read-out: EC50_Mean
[7] = reduction of Shn3 3'UTR-driven luciferase in osteoblasts – cell-based, Clone20 osteoblasts, firefly luciferase, cherry-picked, dose response (AID 624132); assay type: functional;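 also: firefly luciferase luminescence from reporter carrying the Shn3 3'UTR in osteoblasts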
[8] = non-specific 3'UTR reporter inhibition in Clone20-Shn3RL – cell-based, Renilla luciferase, cherry-picked, counter-screen for Shn3 inhibitor project, dose response (AID 624133); assay type: functional
[9] = target: T5, Carboxy-terminal domain RNA polymerase II polypeptide A small phosphatase 1 (Homo sapiens, UniProt Q9GZU7); assay: CTDSP1 inhibitors, concentration-response, biochemical, absorbance readout, ultra-high-throughput screen actives (AID 540297); assay type: functional
T5 sequence (Q9GZU7 whole entry): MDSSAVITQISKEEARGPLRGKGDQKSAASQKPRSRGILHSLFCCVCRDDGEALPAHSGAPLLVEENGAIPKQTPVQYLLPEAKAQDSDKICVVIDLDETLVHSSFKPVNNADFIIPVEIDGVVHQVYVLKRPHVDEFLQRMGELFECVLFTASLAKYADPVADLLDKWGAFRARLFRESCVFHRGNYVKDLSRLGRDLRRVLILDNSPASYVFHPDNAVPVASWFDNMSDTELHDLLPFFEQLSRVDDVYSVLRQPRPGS

[10] = HIV-1 AD8 envelope cell-cell fusion blockers – cherry-pick, dose response (AID 652062); assay type: functional, cell-based;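 also: luciferase signal from cell-cell fusion driven by HIV-1 clade B AD8 Env; potency is for inhibitors of fusion seen as a drop in luminescence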
Paired box protein Pax-8 = Paired box protein Pax-8 (Homo sapiens, UniProt Q06710); assay: PAX8 transcriptional activity inhibition in RMG-I – RMG-I cells, luciferase, cherry-pick, dose response (AID 687027); assay type: functional, cell-based;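 also: luciferase reporter driven by Pax8 target thyroperoxidase promoter measured by SteadyGlo luminescence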
Sequence of Paired box protein Pax-8 (Q06710 whole entry): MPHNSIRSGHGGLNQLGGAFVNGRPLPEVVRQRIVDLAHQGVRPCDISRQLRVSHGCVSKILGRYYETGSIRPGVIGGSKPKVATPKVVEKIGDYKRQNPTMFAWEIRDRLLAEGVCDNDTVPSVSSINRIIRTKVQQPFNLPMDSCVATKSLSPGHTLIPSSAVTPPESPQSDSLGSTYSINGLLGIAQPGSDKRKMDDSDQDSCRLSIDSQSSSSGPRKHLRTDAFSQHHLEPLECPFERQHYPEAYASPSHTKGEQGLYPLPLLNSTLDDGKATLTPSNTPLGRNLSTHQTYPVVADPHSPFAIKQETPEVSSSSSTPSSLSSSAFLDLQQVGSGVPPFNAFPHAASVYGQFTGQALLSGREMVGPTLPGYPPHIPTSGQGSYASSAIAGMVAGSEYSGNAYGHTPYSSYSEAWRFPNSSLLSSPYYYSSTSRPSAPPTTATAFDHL

[11] = OVCAR-3 cell viability loss – plate reader, dry powder samples, PAX8 inhibitor project, dose response (AID 743044); assay type: functional, cell-based

IC50 (Leucine aminopeptidase): 18.9 µM (active)
Structure (SMILES): CC(C)C(=O)Nc1nnc(SCC(=O)Nc2ccc3c(c2)OCCO3)s1

IC50 [1]: > 66 µM (inactive)
IC50 [2]: > 66 µM (inactive)
Structure (SMILES): Cc1ccccc1NC(=O)CSc1nnc(C)c(O)n1

IC50 (Genome polyprotein): 43.2 µM (active)
Structure (SMILES): O=C1Nc2ccc(Cl)cc2C12Nc1ccccc1-c1nnc(SCc3ccccc3F)nc1O2 (configuration not stated)

IC50 (Fatty acid synthase [3]): 3.45 µM (active)
IC50 (Fatty acid synthase [4]): 2.56 µM (active)
Structure (SMILES): COc1ccc(/C=C(/NC(=O)c2ccc([N+](=O)[O-])cc2)C(=O)NC(C)(C)C)cc1

IC50 [1]: > 66 µM (inactive)
IC50 [2]: > 66 µM (inactive)
Structure (SMILES): Cc1cc(C)n2cc(CSc3nnc(N)s3)nc2n1

IC50 (Leucine aminopeptidase): 15.7 µM (active)
Structure (SMILES): O=C(O)CC(Cc1ccccc1)C(=O)Nc1ccc([N+](=O)[O-])cc1 (configuration not stated)

IC50 (Genome polyprotein): 97.1 µM (active)
Structure (SMILES): C#CCOc1ccc(/C=C2/C(=O)ON=C2C)cc1Cl

IC50 [1]: > 66 µM (inactive)
IC50 [2]: > 66 µM (inactive)
Structure (SMILES): COc1ccccc1-n1cc(-c2ccc([N+](=O)[O-])cc2)nc1S

IC50 (Genome polyprotein): 99.8 µM (active)
Structure (SMILES): O=C1NC(=S)N/C1=C/C=C/c1ccccc1

IC50 (Fatty acid synthase [3]): 17.2 µM (active)
IC50 (Fatty acid synthase [4]): 8.19 µM (active)
Structure (SMILES): O=C(NC(=S)Nc1ccccc1)c1cc([N+](=O)[O-])ccc1N1CCOCC1

IC50 [1]: 44.9 µM (inactive)
IC50 [2]: > 66 µM (inactive)
Structure (SMILES): O=C(COC(=O)CCc1c[nH]c(O)n1)Nc1ccccc1

IC50 [1]: > 66 µM (inactive)
IC50 [2]: > 66 µM (inactive)
Structure (SMILES): CN(C)c1nc2n(c(=O)n1)C(C#N)CS2 (configuration not stated)

IC50 (Leucine aminopeptidase): 1.47 µM (active)
Structure (SMILES): N#Cc1c(NC(=O)Cn2cnc3ccccc3c2=O)oc(-c2ccccc2)c1-c1ccccc1

IC50 [1]: 55.5 µM (inactive)
IC50 [2]: > 66 µM (inactive)
Structure (SMILES): O=C(O)c1ccc2c(c1)NC(=O)C(N1CCCC1)S2 (configuration not stated)

IC50 (Fatty acid synthase [3]): 8.48 µM (active)
IC50 (Fatty acid synthase [4]): 7.83 µM (active)
Structure (SMILES): COc1ccc(C(=O)N/C(=C\c2cn(S(=O)(=O)N(C)C)c3ccccc23)C(=O)NCCCN2CCOCC2)cc1

Structure (SMILES): CN1C[C@H](C(=O)N[C@]2(C)O[C@@]3(O)[C@@H]4CCCN4C(=O)[C@H](Cc4ccccc4)N3C2=O)CC2c3cccc4[nH]cc(c34)C[C@H]21 (some centres not stated)
IC50 (Fatty acid synthase [3]): 10.4 µM (active)
IC50 (Fatty acid synthase [4]): 8.09 µM (active)

IC50 (Leucine aminopeptidase): 2.92 µM (active)
Structure (SMILES): CCOc1ccc(NC(=O)Cc2ccccc2)c([N+](=O)[O-])c1

IC50 (Leucine aminopeptidase): 15.6 µM (active)
Structure (SMILES): O=C(CN1C(=O)c2ccccc2C1=O)NCC1COc2ccccc2O1 (configuration not stated)

IC50 [5]: > 47.1 µM (inactive)
IC50 (Fatty acid synthase [3]): 10.2 µM (active)
IC50 (Fatty acid synthase [4]): 11.3 µM (active)
EC50 [6]: > 53 µM (inactive)
Structure (SMILES): CCCCCCn1c(=O)c(F)cn(Cc2ccc(OC)c([N+](=O)[O-])c2)c1=O

IC50 [1]: > 66 µM (inactive)
IC50 [2]: > 66 µM (inactive)
Structure (SMILES): CCOC(=O)c1sc(=S)n(-c2ccc3c(c2)OCO3)c1N

IC50 (Fatty acid synthase [3]): 12.8 µM (active)
IC50 (Fatty acid synthase [4]): 11.2 µM (active)
Structure (SMILES): O=C(Nn1c(C2CCCCC2)nc2ccccc2c1=O)c1ccc(Cl)c([N+](=O)[O-])c1

Structure (SMILES): CCN(c1ccccc1)S(=O)(=O)c1ccc(Cl)c(NC(=O)CN(C)Cc2cccc(F)c2)c1
AC50 [7]: 8.78 µM (active)
AC50 [8]: 6.46 µM (active)

IC50 (Genome polyprotein): 42.5 µM (active)
Structure (SMILES): Cc1ccc([C@@H]2CC=C(C(=O)O)[C@H](c3ccc(Br)cc3)N2S(=O)(=O)c2ccc(C)cc2)cc1

IC50 [1]: > 66 µM (inactive)
IC50 [2]: > 66 µM (inactive)
Structure (SMILES): CCc1cccc(CC)c1NC(=O)CSc1nnc(CCC(=O)O)c(O)n1

IC50 (Fatty acid synthase [3]): 4.45 µM (active)
IC50 (Fatty acid synthase [4]): 5.81 µM (active)
Structure (SMILES): N#Cc1c(C(F)(F)F)cc(-c2cccs2)nc1SC(C(=O)O)c1ccccc1 (configuration not stated)

IC50 [9]: 4.14 µM (active)
Structure (SMILES): Cc1cccc(C(=O)Oc2ccc(/C=N/NC(=O)c3cc(O)cc(O)c3)cc2)c1

IC50 (Leucine aminopeptidase): 3.72 µM (active)
Structure (SMILES): CC(=O)NS(=O)(=O)c1ccc(/N=c2\ssc3c2-c2cc(C)c(C)cc2NC3(C)C)cc1

IC50 (Fatty acid synthase [3]): 5.47 µM (active)
IC50 (Fatty acid synthase [4]): 7.78 µM (active)
Structure (SMILES): CC(C)(C)c1ccc(C(=O)N2CCC2(C)C(=O)Nc2cccc(C#N)c2)cc1 (configuration not stated)

Structure (SMILES): O=C1COc2ccc(-c3cs/c(=N\c4ccc(OC(F)F)cc4)n3CC3CCCO3)cc2N1 (configuration not stated)
AC50 [10]: 18.6 µM (active)

Structure (SMILES): C[C@@H]1CN([C@H](C)CO)C(=O)c2cc(NC(=O)Nc3ccc(F)cc3)ccc2O[C@@H](C)CCCCO[C@H]1CN(C)S(=O)(=O)c1ccccc1
AC50 (Paired box protein Pax-8): 4.82 µM (active)
AC50 [11]: 35.3 µM (active)

IC50 (Leucine aminopeptidase): 56.1 µM (active)
Structure (SMILES): CN(C)c1ccc(/C=N/NC(=O)c2nonc2N)cc1[N+](=O)[O-]

IC50 (Genome polyprotein): 42 µM (active)
Structure (SMILES): CCC(C)CCCCCCCCCCC(=O)O (configuration not stated)
